Results published in US4590205A, “Antiinflammatory and/or analgesic 2,3-diaryl-5-halo thiophenes” (E. I. Du Pont de Nemours and Company, priority 1984, dated 1986).
Like-named read-outs stand apart in the source and are kept apart here.

Assays:
[1] = tested on: adjuvant-induced arthritis in rats; test: Established adjuvant-induced arthritis in rats (decrease of paw volume); type: in vivo, Charles River Lewis male rats; conditions: for ED50: Rattus norvegicus, read-out: Adjuvant Arthritis ED50
[2] = tested on: characteristic stretching or writhing syndrome which is indicative of pain induced by phenylquinone; test: Phenylquinone writhing test (PQW), analgesic activity; type: in vivo, female white mice; conditions: Mus musculus, read-out: PQW ED50
Experimental: A test compound suspended in 1% methylcellulose was given orally to fasted (17-21 hours) female white mice, 5-20 animals per double blind test. Aqueous (0.01% phenyl-p-benzoquinone) phenylquinone, 0.20 ml per mouse, was injected intraperitoneally 6 minutes before observations were begun.

[3] = oral gavage, 7 daily doses, ED50% decrease from control paw volume
[4] = oral, fasted mice, effective analgesic dose for 50% of the mice

SMILES | ED50 [1, 3] [mg/kg] | ED50 [2, 4] [mg/kg] | % Decrease from control paw volume at indicated daily dose ([1]; daily dose 81 (mg/kg), oral) [%] | ED50 ([1]; po) [mg/kg] | ED50 ([2]; po) [mg/kg]
Cc1ccc(-c2cc(Br)sc2-c2ccc(C)cc2)cc1 [Example 7] | > 81 | 2.9 | – | – | –
CC(C)Cc1ccc(C(C)C(=O)O)cc1 (stereo not drawn) [Ibuprofen, ibuprofen, reference compound] | 100 | 10 | – | – | –
COc1ccc(-c2cc(Cl)sc2-c2ccc(OC)cc2)cc1 [Example 2, 5-Chloro-2,3-bis(4-methoxyphenyl)thiophene] | 4.5 | 2.1 | – | – | –
COc1ccc(-c2cc(I)sc2-c2ccc(OC)cc2)cc1 [Example 3, 5-Iodo-2,3-bis(4-methoxyphenyl)thiophene] | – | < 15 | 46 | – | –
CCCCC1C(=O)N(c2ccccc2)N(c2ccccc2)C1=O [Phenylbutazone, phenylbutazone, reference compound] | 10 | 80 | – | – | –
CSc1ccc(-c2sc(Br)cc2-c2ccc(F)cc2)cc1 [Example 5, 5-bromo-3-(4-fluorophenyl)-2-(4-methylthiophenyl)thiophene] | 1.4 | > 108 | – | – | –
COc1ccc(-c2cc(Br)sc2-c2ccc(SC)cc2)cc1 [Example 8] | 2.9 | < 15 | – | – | –
Fc1ccc(-c2cc(Br)sc2-c2ccc(F)cc2)cc1 [Example 1, 5-Bromo-2,3-bis(4-fluorophenyl)thiophene] | > 60 | 6.8 | – | – | –
CC(=O)Oc1ccccc1C(=O)O [Aspirin, aspirin, reference compound] | – | – | – | 305 | 135
CSc1ccc(-c2cc(Br)sc2-c2ccc(F)cc2)cc1 [Example 6, 5-bromo-2-(4-fluorophenyl)-3-(4-methylthiophenyl)thiophene] | 0.25 | > 108 | – | – | –
CS(=O)(=O)c1ccc(-c2sc(Br)cc2-c2ccc(F)cc2)cc1 [Example 9, 5-bromo-3-(4-fluorophenyl)-2-(4-methylsulfonylphenyl)thiophene] | 0.4 | > 108 | – | – | –
COc1ccc2c(c1)c(CC(=O)O)c(C)n2C(=O)c1ccc(Cl)cc1 [Indomethacin, indomethacin, reference compound] | – | – | – | 0.3 | 0.35
